Values of other authors, collected in US20060275294A1, “METHOD OF PREVENTION AND TREATMENT OF AGING, AGE-RELATED DISORDERS AND/OR AGE-RELATED MANIFESTATIONS INCLUDING ATHEROSCLEROSIS, PERIPHERAL VASCULAR DISEASE, CORONARY ARTERY DISEASE, OSTEOPOROSIS, ARTHRITIS, TYPE 2 DIABETES, DEMENTIA, ALZHEIMERS DISEASE AND CANCER” (priority 2002, published 2006).
Read-outs that look alike come from different tables or passages of the source.

Tests used:
Jurkat T cells = details: cited from earlier work
STAT1 and STAT3 = details: cited from earlier work
Rat VSMC = details: 50 microM, IL-6 stimulated; cited from earlier work
[1] = tested on: human endothelial cells (EC); details: 100 ug/ml for DHA, EPA; 24 h supernatants, ELISA; cited from earlier work
[2] = tested on: rat vascular smooth muscle cells; details: cited from earlier work
Yorkshire swine = details: 20 mg/kg/day, 5 months, cited from earlier work
Male Wistar rats [3] = details: rats; cited from earlier work
[4] = tested on: cultured human astrocytes; details: cited from earlier work
[5] = tested on: three human pancreatic cancer cell types; details: cited from earlier work
Male Wistar rats [6] = details: administered to every diet group; cited from earlier work
JB6 cell = details: cited from earlier work
[7] = target: fAbeta(1-40) and fAbeta(1-42) (Homo sapiens, UniProt P05067); details: cited from earlier work; for fAbeta formation from Abeta(1-40) and Abeta(1-42): in vitro
myeloma cell lines = details: cited from earlier work
STAT3 and ERK1/2 = details: cited from earlier work
MM cells = details: cited from earlier work
IL-6 = details: in vitro; cited from earlier work
[8] = tested on: in-patients with advanced (stage III) Huntington's disease; details: 6 months; cited from earlier work
[9] = tested on: subjects with type 2 diabetes associated with osteopenia; details: 200 mg/day for 2 weeks every 3 months, 1 yr; cited from earlier work
[10] = tested on: IL-1 beta, IL-6, and TNF-alpha; details: cited from earlier work
[11] = tested on: human microvascular endothelial cells (EC); details: cited from earlier work
[12] = tested on: rats with adjuvant arthritic chronic pain; details: cited from earlier work
[13] = tested on: human prostate carcinoma PC-3 cell line; details: cited from earlier work
[14] = tested on: aortic strips isolated from virgin and late pregnant Sprague-Dawley rats; details: cited from earlier work; for increase in active stress: 10^-5 M, endothelium-intact strips; for enhancement of Phe contraction: 1,000 pg/ml
IKKbeta = IKKbeta (Homo sapiens, UniProt O14920); details: cited from earlier work
Wistar rats = details: cited from earlier work
[15] = tested on: rat primary astrocytes, microglia, and macrophages; details: cited from earlier work
mice = details: mouse, in vivo; cited from earlier work
[16] = in vivo, sc; cited from earlier work
rats = details: synthetic diet for 21 days; cited from earlier work
[17] = tested on: Primary adipocytes from pig subcutaneous adipose tissue; details: cited from earlier work

Chain of fAbeta(1-40) and fAbeta(1-42) (P05067 672-711 limits assumed): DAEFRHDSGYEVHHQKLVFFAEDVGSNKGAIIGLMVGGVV
Chain of IKKbeta (O14920 whole entry, species assumed): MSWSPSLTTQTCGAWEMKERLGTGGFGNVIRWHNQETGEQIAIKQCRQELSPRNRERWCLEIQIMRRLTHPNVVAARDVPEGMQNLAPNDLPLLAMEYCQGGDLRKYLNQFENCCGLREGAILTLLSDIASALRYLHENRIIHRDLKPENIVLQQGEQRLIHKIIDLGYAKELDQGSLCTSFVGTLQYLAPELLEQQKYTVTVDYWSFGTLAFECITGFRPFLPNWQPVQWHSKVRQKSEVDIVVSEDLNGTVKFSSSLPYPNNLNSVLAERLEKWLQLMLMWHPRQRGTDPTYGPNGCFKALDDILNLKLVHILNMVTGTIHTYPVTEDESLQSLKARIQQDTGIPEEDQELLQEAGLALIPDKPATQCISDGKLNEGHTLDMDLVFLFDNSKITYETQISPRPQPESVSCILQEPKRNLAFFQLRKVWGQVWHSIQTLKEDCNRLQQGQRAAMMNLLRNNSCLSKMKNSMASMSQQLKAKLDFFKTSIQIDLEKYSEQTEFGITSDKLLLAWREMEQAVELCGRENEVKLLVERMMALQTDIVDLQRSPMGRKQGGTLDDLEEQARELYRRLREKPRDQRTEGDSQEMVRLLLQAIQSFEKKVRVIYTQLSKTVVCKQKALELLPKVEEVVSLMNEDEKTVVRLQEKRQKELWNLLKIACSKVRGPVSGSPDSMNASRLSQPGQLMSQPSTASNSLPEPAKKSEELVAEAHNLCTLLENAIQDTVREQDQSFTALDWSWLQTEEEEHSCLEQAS

Oc1cc(O)c2c(c1)OC(c1ccc(O)c(O)c1)C(O)C2 (single isomer, unassigned; (+)) [CT, (+)-catechin]
PMA-triggered increase in cell oxidants (Jurkat T cells; 1.7-17.2 microM, 24 h preincubation): prevented | PMA-induced NF-kappaB binding activity and transactivation of IL-2 (Jurkat T cells; pretreatment): decreased

N#C/C(=C/c1ccc(O)c(O)c1)C(=O)NCc1ccccc1 [AG490]
CuLDL-induced enhancement of STAT1 and STAT3 Tyr-phosphorylation and DNA-binding activity (STAT1 and STAT3): markedly prevented | DNA synthesis (Rat VSMC): near complete inhibition | STAT 3 activation and MCP-1 production (Rat VSMC): partially inhibited

CCCCC/C=C\C/C=C\C/C=C\C/C=C\CCCC(=O)O [Arachidonic acid]
production of IL-6 by unstimulated or stimulated EC [1]: ineffective

CCOc1nc2cccc(C(=O)O)c2n1Cc1ccc(-c2ccccc2-c2nnn[nH]2)cc1 [CV11974]
expression of IL-6 mRNA induced by Ang II [2]: completely blocked

CC(O)(P(=O)(O)O)P(=O)(O)O [EHDP, ethane-1-hydroxy-1,1-diphosphonate]
extent of lesions, ratio of intima to media (Yorkshire swine; vs HL diet only): significantly less | lesion calcium (Yorkshire swine): significantly less | ratio of lipid-rich necrotic debris area to area of media (Yorkshire swine): significantly smaller

Oc1cc(O)c2c(c1)O[C@H](c1cc(O)c(O)c(O)c1)[C@H](O)C2 [Epigallocatechin]
myocardial ischemia reperfusion injury (Male Wistar rats [3]): attenuates

CN(C)CCCn1cc(C2=C(c3c[nH]c4ccccc34)C(=O)NC2=O)c2ccccc21 [GF109203X]
PDBu-increased secretion of APPalpha [4]: blocked

Cc1ccc(NC(=O)c2ccc(CN3CCN(C)CC3)cc2)cc1Nc1nccc(-c2cccnc2)n1 [Gleevec]
inhibition of proliferation [5]: ineffective

COc1ccc2c(c1)c(CC(=O)O)c(C)n2C(=O)c1ccc(Cl)cc1 [Indomethacin]
inflammatory process in adjuvant arthritis (Male Wistar rats [6]): strong inhibitory effect

O=P(O)(O)O[C@H]1[C@H](OP(=O)(O)O)[C@@H](OP(=O)(O)O)[C@H](OP(=O)(O)O)[C@@H](OP(=O)(O)O)[C@H]1OP(=O)(O)O [InsP6, inositol hexaphosphate]
cell transformation (JB6 cell): inhibited

CC(Cc1ccc(O)c(O)c1)C(C)Cc1ccc(O)c(O)c1 (stereo not shown) [NDGA, Nordihydroguaiaretic acid]
fAbeta formation from Abeta(1-40) and Abeta(1-42) [7]: inhibit

CCCC(=O)O[C@@H]1[C@@H](C)[C@@]2(O)[C@@H](C=C(CO)C[C@]3(O)C(=O)C(C)=C[C@@H]23)[C@@H]2C(C)(C)[C@]12OC(=O)CCC [PDBu, Phorbol 12, 13-dibutyrate]
increase of secretion of APPalpha over control [4]: 2-3 fold

S=C=NCCc1ccccc1 [PEITC, phenethyl isothiocyanate]
cell transformation (JB6 cell): inhibited cell transformation

Cn1cncc1[C@@](N)(c1ccc(Cl)cc1)c1ccc2c(c1)c(-c1cccc(Cl)c1)cc(=O)n2C [R115777]
growth of three myeloma cell lines (myeloma cell lines): significant and dose-dependent growth inhibition | apoptosis (myeloma cell lines; myeloma cells): significant and time-dependent apoptosis | phosphorylation of STAT3 and ERK1/2 induced by IL-6 (STAT3 and ERK1/2; 10 and 5 microM): partially blocked | phosphorylation of STAT3 and ERK1/2 induced by IL-6 (STAT3 and ERK1/2; 15 microM): totally blocked

O=C(OC[C@H]1O[C@@H](OC(=O)c2cc(O)c(O)c(OC(=O)c3cc(O)c(O)c(O)c3)c2)[C@H](OC(=O)c2cc(O)c(O)c(OC(=O)c3cc(O)c(O)c(O)c3)c2)[C@@H](OC(=O)c2cc(O)c(O)c(OC(=O)c3cc(O)c(O)c(O)c3)c2)[C@@H]1OC(=O)c1cc(O)c(O)c(OC(=O)c2cc(O)c(O)c(O)c2)c1)c1cc(O)c(O)c(OC(=O)c2cc(O)c(O)c(O)c2)c1 [TA, tannic acid]
fAbeta formation from Abeta(1-40) and Abeta(1-42) [7]: dose-dependently inhibited | EC50 ([7]; pH 7.5, 37 degrees C, read-out: effective concentrations (EC50) for formation, extension and destabilization of fAbetas): < 0.1 µM

COc1cc(/C=C/C(=O)CC(=O)/C=C/c2ccc(O)c(OC)c2)ccc1O [curcumin, diferuloylmethane]
adhesion to bone marrow stromal cells, cytokine secretion, viability of cells (MM cells; ex vivo treatment of patient MM cells): decrease | expression of NF-kappaB-regulated gene products incl. interleukin-6 (MM cells; human MM cells): down-regulated

C[C@]12CC[C@@H]3c4ccc(O)cc4CC[C@H]3[C@@H]1CC[C@@H]2O [estradiol, 17beta-estradiol]
IL-6 protein and mRNA production (IL-6): inhibits

CC/C=C\C/C=C\C/C=C\C/C=C\C/C=C\CCCC(=O)OCC [ethyl-EPA, ethyl-ester of eicosapentaenoic acid]
orofacial component of the Unified Huntington's Disease Rating Scale [8]: improved

CC(O)(P(=O)(O)O)P(=O)(O)O [etidronate]
change in intima-media thickness (mean±SE) [9]: −0.038±0.011 mm

CO[C@H]1[C@@H](OC)C[C@H](C)[C@@H](OC)C2=CC(=O)C=C(NC(=O)/C(C)=C/C=C\[C@H](OC)[C@@H](OC(N)=O)/C(C)=C/[C@@H]1C)C2=O [herbimycin A]
LPS-induced increase in IL-1 beta, IL-6, and TNF-alpha mRNA levels ([10]; 1.7 microM): completely or more than 80% blocked | LPS activation of NF-kappa B [10]: reduced | LPS-induced IL-6 protein synthesis and IL-6 bioactivity [10]: reduced to baseline levels | IC50 ([5]; three cell lines, read-out: mean IC(50) proliferation): 1.71 µM

O=P([O-])(O)C(NC1CCCCCC1)P(=O)([O-])O.[Na+].[Na+] [incadronate disodium]
activation of NF-kappaB and AP-1 and up-regulation of VEGF mRNA ([11]; AGE-exposed EC): significantly prevented | AGE-induced increase in DNA synthesis and tube formation [11]: completely inhibit

CC(C)Oc1ccc2c(=O)c(-c3ccccc3)coc2c1 [ipriflavone, 7-isopropoxyisoflavone]
analgesic effects ([12]; 100 mg/kg/day oral, 2 weeks after start): Analgesic effects were observed | synovitis, periosteal new bone formation and bone destruction ([12]; 3 weeks, females): improved

C=C(C)[C@@H]1CC=C(C(=O)O)CC1 [perillic acid]
IL-6- and OM-mediated effects (growth, resistance to etoposide and cisplatin) [13]: inhibited

CNC[C@H](O)c1cccc(O)c1 [phenylephrine]
increase in active stress ([14]; pregnant rats): 4.2±0.3 ×104 N/m2 | increase in active stress ([14]; virgin rats): 5.1±0.3 ×104 N/m2

Oc1ccc(C=Cc2cc(O)cc(O)c2)cc1 [resveratrol]
cell transformation (JB6 cell): inhibited cell transformation | activation of IKKbeta (IKKbeta): inhibit or suppress

C[C@@H]1O[C@@H](OC[C@H]2O[C@@H](Oc3c(-c4ccc(O)c(O)c4)oc4cc(O)cc(O)c4c3=O)[C@H](O)[C@@H](O)[C@@H]2O)[C@H](O)[C@H](O)[C@H]1O [rutin, quercetin-3-O-glucose rhamnose]
mean plasma concentration of active metabolites (quercetin and isorhamnetin) (Wistar rats; OVX+R rats, HPLC): 9.46 ± 1 µM | uterotrophic activity (Wistar rats; rat, in vivo): devoid of any uterotrophic activity

O=C([O-])Cc1ccccc1.[Na+] [sodium phenylacetate]
LPS-mediated activation of NF kappa B ([15]; astrocytes): Inhibition | LPS-induced expression of TNF-alpha, IL-1beta, and IL-6 ([15]; rat primary astrocytes, microglia, macrophages): inhibited | LPS and cytokine-mediated production of NO and expression of iNOS ([15]; rat primary astrocytes): inhibit

C=C(CC[C@]12O[C@H](C(=O)O)[C@@](O)(C(=O)O)[C@](C(=O)O)(O1)[C@H](OC(=O)/C=C/[C@@H](C)C[C@@H](C)CC)[C@H]2O)[C@@H](OC(C)=O)[C@H](C)Cc1ccccc1 [squalestatin]
anti-inflammatory effect (mice): did not have any anti-inflammatory effect

IL-6: interleukin-6 cytokine
adverse effects of subcutaneous administration [16]: cardiac arrhythmias, hepatotoxicity | enhancement of Phe contraction ([14]; pregnant rats): 10.6±0.7 ×104 N/m2 | enhancement of Phe contraction ([14]; virgin rats): 7.5±0.4 ×104 N/m2

Lavendustin
inhibition of proliferation [5]: ineffective

vitamin E
endotoxin induced IL-6 concentration (rats): significantly lower

B1: adiponectin: adiponectin (protein, UniProt Q15848 19-244, looked up)
Adiponectin: ETTTQGPGVLLPLPKGACTGWMAGIPGHPGHNGAPGRDGRDGTPGEKGEKGDPGLIGPKGDIGETGVPGAEGPRGFPGIQGRKGEPGEGAYVYRSAFSVGLETYVTIPNMPIRFTKIFYNQQNHYDGSTGKFHCNIPGLYYFAYHITVYMKDVKVSLFKKDKAMLFTYDQYQENNVDQASGSVLLHLEVGDQVWLQVYGEGERNGLYADNDNDSTFTGFLLYHDTN
NF-kappaB activation and induction of IL-6 expression by LPS ([17]; 30 microg/ml, LPS 10 microg/ml): suppressed | PPARgamma2 mRNA [17]: upregulation
